Data reported in patent EP4417202A1, “ANTI-CANCER ACTION OF BAG1-SELECTIVE IMIDAZOPYRIDINE COMPOUNDS IN STEROID HORMONE RECEPTOR-POSITIVE BREAST AND PROSTATE CANCER” (Karlsruher Institut für Technologie, priority 2023, dated 2024).
Each block holds one molecule with its values, some of them ahead of it.

Assays:
MCF-7 = assay: Clonogenic assay (clonal expansion); format: cell-based; settings: Breast Cancer (MCF-7), ER+, inhibition of clonal expansion
Experimental: (§1) Cells were seeded at a density of 1-2×10^3 cells/well in a 6 well plate in RPMI 1640 supplemented with 10% FBS, penicillin (100 u/ml), streptomycin (100 u/ml), and L-glutamine (2 mM). Cells were treated with increasing concentrations of X15695 and cultured for 14 to 21 days. Medium and compounds were exchanged after 7 days. Cells were fixed with methanol/ acetic acid mixture (3:1 v/v) and the formation of colonies was visualized using 0.5% crystal violet (w/v) in 20% methanol (v/v). Plates were scanned in a conventional office scanner (Epson). The area covered by colonies was calculated using the ColonyArea Plugin for ImageJ.

ZR75-1 = assay: Clonogenic assay (clonal expansion); format: cell-based; settings: Breast Cancer (ZR75-1), ER+, inhibition of clonal expansion
Experimental: as §1

LNCaP = assay: Clonogenic assay (clonal expansion); format: cell-based; settings: Prostate Cancer (LNCaP), AR+, inhibition of clonal expansion
Experimental: as §1

22Rv.1 = assay: Clonogenic assay (clonal expansion); format: cell-based; settings: Prostate Cancer (22Rv.1), AR+, inhibition of clonal expansion
Experimental: as §1

[1] = test system: ER^+ and AR^+ breast and prostate cancer cells; settings: proliferation of ER^+ and AR^+ breast and prostate cancer cells, previously reported; cited from earlier work
T47D = assay: Clonogenic assay (clonal expansion); format: cell-based; settings: Homo sapiens; Breast Cancer (T47D), ER+; inhibition of clonal expansion
Experimental: as §1

DU145 = assay: Clonogenic assay (clonal expansion); format: cell-based; settings: Homo sapiens, DU-145; Prostate Cancer (DU145), AR-; inhibition of clonal expansion
Experimental: as §1

PC3 = assay: Clonogenic assay (clonal expansion); format: cell-based; settings: Homo sapiens; Prostate Cancer (PC3), AR-; inhibition of clonal expansion
Experimental: as §1

TRMCF-7 cells = assay: Clonogenic assay (clonal expansion); format: cell-based
Experimental: as §1

ERα = settings: MCF-7 cells
Experimental: For Western blotting, cells were lysed in NP-40 lysis buffer (1% NP-40, 50 mM Tris-HCl, pH 8.0, 150 mM NaCl, 5 mM EDTA) or 1× passive lysis buffer (Promega, Germany) for 15 min on ice. Cell debris was removed by centrifugation at 13,000 rpm for 10 min and used for SDS-polyacrylamide gel electrophoresis (PAGE) and Western blotting.
Western Blotting was carried out using standard protocols with antibodies: p53 (clone DO1), p53 (Sp5, Thermo Fisher Scientific Karlsruhe, Germany), Mdm2 (4B2, Abcam, Cambridge, UK). […] Secondary goat anti-mouse and goat anti-rabbit antibodies were purchased from DAKO (Bollschweil, Germany).

[2] = test system: TRMCF-7 cells (tamoxifen resistant MCF-7 cells); assay: MTT cell viability assay; format: cell-based; settings: 48 h
Experimental: […] Cells transfected with siRNA were incubated for 72 h after X15695 addition. Thereafter, the medium was exchanged for a fresh medium containing 0.5 mg/ml MTT (Sigma-Aldrich) and incubated at 37°C for 1 h to 4 h (depending on cell line) until intracellular purple formazan crystals were formed. The MTT solution was removed, and the purple crystals were dissolved in isopropanol and the optical absorbance at 595 nm was recorded using SpectraMax iD3, Molecular Devices, San Jose, CA, USA.

Structure (SMILES): Fc1ccc(-c2nc3cc(C(F)(F)F)ccc3s2)cc1 [Compound A4B17, reference compound]
- IC50 (MCF-7): 1280 nM
- IC50 (ZR75-1): 110 nM
- IC50 (LNCaP): 1600 nM
- IC50 (22Rv.1): 3400 nM
- IC50 values [1]: in the micromolar range

Structure (SMILES): FC(F)(F)c1cc(Cl)c2nc(-c3ccccc3)cn2c1 [X19166/ X15696, 8-Chloro-2-phenyl-6-(trifluoromethyl)imidazo[1,2-a]pyridine]
- IC50 (MCF-7; Homo sapiens, MCF7): 7.9 ± 1.9 nM
- IC50 (DU145): 3580 nM
- IC50 (ZR75-1; Homo sapiens, ZR-75-1): 10.2 ± 2.7 nM
- IC50 (LNCaP; Homo sapiens): < 0.1 nM
- IC50 (PC3): 11900 nM
- IC50 (T47D): 44.7 ± 11.4 nM
- IC50 (22Rv.1; Homo sapiens, 22Rv1): 22.5 ± 6.6 nM

Structure (SMILES): C[C@]12CC[C@@H]3c4ccc(O)cc4C[C@@H](CCCCCCCCC[S+]([O-])CCCC(F)(F)C(F)(F)F)[C@H]3[C@@H]1CC[C@@H]2O (stereo partly drawn) [fulvestrant, reference compound]
- inhibition of clonal expansion (TRMCF-7 cells): slightly more efficacious than X15695
- ERα downregulation over time (ERα; 1 µM, time course): rapidly downregulated ERα level within 4 h to 8 h recovering gradually thereafter
- concentration sufficient to downregulate ERα (ERα; 8 h): ≤ 1 nM
- inhibition of viability [2]: comparable activities

Structure (SMILES): CC/C(=C(\c1ccccc1)c1ccc(OCCN(C)C)cc1)c1ccccc1 [tamoxifen]
- inhibition of clonal expansion (TRMCF-7 cells): inactive
- inhibition of viability [2]: ineffective

Now from value to molecule:

- IC50 (MCF-7; Homo sapiens, MCF7): 12 nM
- IC50 (22Rv.1; Homo sapiens, 22Rv1): 641 ± 246 nM
Structure (SMILES): Fc1ccc(-c2cn3cc(Br)ccc3n2)cc1 [Compound X19168, 6-bromo-2-(4-fluorophenyl)imidazo[1,2-a]pyridine]

- IC50 (MCF-7; Homo sapiens, MCF7): 14.5 nM
- IC50 (LNCaP; Homo sapiens): < 0.1 nM
- IC50 (22Rv.1; Homo sapiens, 22Rv1): 4.4 ± 1.6 nM
Structure (SMILES): Fc1ccccc1-c1cn2cc(C(F)(F)F)cc(Cl)c2n1 [Compound X19720, 8-Chloro-2-(2-fluorophenyl)-6-(trifluoromethyl)imidazo[1,2-a]pyridine]

- IC50 (MCF-7; Homo sapiens, MCF7): 3.3 ± 0.9 nM
- IC50 (ZR75-1; Homo sapiens, ZR-75-1): 16.2 ± 4.7 nM
- IC50 (LNCaP; Homo sapiens): 0.2 nM
- IC50 (T47D): 86.1 ± 49.1 nM
- IC50 (22Rv.1; Homo sapiens, 22Rv1): 4.4 nM
Structure (SMILES): Cc1cc(Cl)c2nc(-c3ccc(F)cc3)cn2c1 [Compound X19724, 8-Chloro-2-(4-fluorophenyl)-6-methylimidazo[1,2-a]pyridine]

- IC50 (MCF-7; Homo sapiens, MCF7): 6 ± 2.8 nM
- IC50 (ZR75-1; Homo sapiens, ZR-75-1): 39.2 ± 24.3 nM
- IC50 (22Rv.1; Homo sapiens, 22Rv1): 48.5 ± 13.3 nM
Structure (SMILES): Cc1cc(Cl)c2nc(-c3ccccc3)cn2c1 [Compound X19728, 8-Chloro-6-methyl-2-phenylimidazo[1,2-a]pyridine]

- IC50 (MCF-7; Homo sapiens, MCF7): 10 ± 4.3 nM
- IC50 (ZR75-1; Homo sapiens, ZR-75-1): 31.8 nM
- IC50 (LNCaP; Homo sapiens): 0.1 nM
- IC50 (T47D): 57.1 nM
- IC50 (22Rv.1; Homo sapiens, 22Rv1): 7.5 ± 3.2 nM
Structure (SMILES): Fc1ccc(-c2cn3cc(C(F)(F)F)ccc3n2)cc1 [Compound X20046, 2-(4-Fluorophenyl)-6-(trifluoromethyl)imidazo[1,2-a]pyridine]
